Activity calls are given as the source filed them. No cut-off for these calls is given here.
Key:
[1] = tested on: C6661; test: Antiproliferation activity against human C6661 cells assessed as reduction in cell viability incubated for 48 hrs by MTT assay; format: functional, cell-based
[2] = tested on: CNE; test: Antiproliferation activity against human CNE1 cells assessed as reduction in cell viability incubated for 48 hrs by MTT assay; format: functional, cell-based
[3] = tested on: C6661; test: Induction of apoptosis in human C6661 cells assessed as increase in apoptotic cells population at 2 umol/l incubated for 48 hrs by annexin V-FITC / propidium iodide staining based flow cytometry; format: functional
[4] = tested on: C6661; test: Antiproliferation activity against human C6661 cells assessed as reduction in cell viability at 1 umol/l incubated for 48 hrs by MTT assay; format: functional, cell-based
[5] = tested on: C6661; test: Antiproliferation activity against human C6661 cells assessed as reduction in cell viability at 2 to 10 umol/l incubated for 48 hrs by MTT assay relative to control; format: functional, cell-based
[6] = tested on: CNE; test: Antiproliferation activity against human CNE1 cells assessed as reduction in cell viability at 1 umol/l incubated for 48 hrs by MTT assay; format: functional, cell-based
[7] = tested on: CNE; test: Antiproliferation activity against human CNE1 cells assessed as reduction in cell viability at 2 to 10 umol/l incubated for 48 hrs by MTT assay relative to control; format: functional, cell-based
[8] = tested on: C6661; test: Induction of apoptosis in human C6661 cells assessed as enhanced early apoptotic cells population at 1 to 10 umol/l incubated for 48 hrs by annexin V-FITC / propidium iodide staining based flow cytometry; format: functional
[9] = tested on: C6661; test: Induction of apoptosis in human C6661 cells assessed as increase in apoptotic cells population at 4 umol/l incubated for 48 hrs by annexin V-FITC / propidium iodide staining based flow cytometry; format: functional
[10] = tested on: C6661; test: Induction of apoptosis in human C6661 cells assessed as increase in apoptotic cells population at 6 umol/l incubated for 48 hrs by annexin V-FITC / propidium iodide staining based flow cytometry; format: functional
[11] = tested on: C6661; test: Induction of apoptosis in human C6661 cells assessed as increase in apoptotic cells population at 10 umol/l incubated for 48 hrs by annexin V-FITC / propidium iodide staining based flow cytometry; format: functional
[12] = tested on: C6661; test: Antimetastatic activity in human C6661 cells assessed as reduction in cell invasion after 48 hrs by hematoxylin staining-based transwell invasion assay; format: functional
[13] = tested on: C6661; test: Antimetastatic activity in human C6661 cells assessed as cell invasion at 1 umol/l after 48 hrs by hematoxylin staining-based transwell invasion assay relative to control; format: functional
[14] = tested on: C6661; test: Antimetastatic activity in human C6661 cells assessed as cell invasion at 2 umol/l after 48 hrs by hematoxylin staining-based transwell invasion assay relative to control; format: functional
[15] = tested on: C6661; test: Antimetastatic activity in human C6661 cells assessed as cell invasion at 4 umol/l after 48 hrs by hematoxylin staining-based transwell invasion assay relative to control; format: functional
[16] = tested on: C6661; test: Antimetastatic activity in human C6661 cells assessed as cell invasion at 6 umol/l after 48 hrs by hematoxylin staining-based transwell invasion assay relative to control; format: functional
[17] = tested on: C6661; test: Antimetastatic activity in human C6661 cells assessed as cell invasion at 10 umol/l after 48 hrs by hematoxylin staining-based transwell invasion assay relative to control; format: functional
[18] = tested on: C6661; test: Down regulation of S100P mRNA expression in human C6661 cells at 2 to 10 umol/l incubated for 48 hrs by RT-qPCR analysis relative to control; format: functional, cell-based
[19] = tested on: C6661; test: Down regulation of S100P protein expression level in human C6661 cells at 2 to 10 umol/l incubated for 48 hrs by Western-blot analysis relative to control; format: functional, cell-based
[20] = tested on: C6661; test: Down regulation of MMP-2 protein expression level in human C6661 cells at 4 to 10 umol/l incubated for 48 hrs by Western-blot analysis relative to control; format: functional, cell-based
[21] = tested on: C6661; test: Down regulation of MMP-9 protein expression level in human C6661 cells at 4 to 10 umol/l incubated for 48 hrs by Western-blot analysis relative to control; format: functional, cell-based
[22] = tested on: C6661; test: Down regulation of CD44 protein expression level in human C6661 cells at 4 to 10 umol/l incubated for 48 hrs by Western-blot analysis relative to control; format: functional, cell-based
[23] = tested on: C6661; test: Down regulation of EGFR protein expression level in human C6661 cells at 4 to 10 umol/l incubated for 48 hrs by Western-blot analysis relative to control; format: functional, cell-based
[24] = tested on: C6661; test: Down regulation of RAGE protein expression level in human C6661 cells at 4 to 10 umol/l incubated for 48 hrs by Western-blot analysis relative to control; format: functional, cell-based
[25] = Cytotoxicity against human NP69 cell assessed as reduction in cell viability at 2 to 10 umol/l incubated for 48 hrs by MTT assay
[26] = tested on: C6661; test: Down regulation of EGFR protein expression level in human C6661 cells at 1 umol/l incubated for 48 hrs by Western-blot analysis relative to control; format: functional, cell-based
[27] = tested on: C6661; test: Down regulation of MMP-2 protein expression level in human C6661 cells at 1 umol/l incubated for 48 hrs by Western-blot analysis relative to control; format: functional, cell-based
[28] = tested on: C6661; test: Down regulation of RAGE protein expression level in human C6661 cells at 1 umol/l incubated for 48 hrs by Western-blot analysis relative to control; format: functional, cell-based
[29] = tested on: C6661; test: Antiproliferation activity against human C6661 cells assessed as reduction in cell viability at 10 umol/l incubated for 48 hrs by MTT assay relative to control; format: functional
[30] = tested on: CNE; test: Antiproliferation activity against human CNE1 cells assessed as reduction in cell viability at 10 umol/l incubated for 48 hrs by MTT assay; format: functional
[31] = tested on: C6661; test: Down regulation of MMP-9 protein expression level in human C6661 cells at 1 umol/l incubated for 48 hrs by Western-blot analysis relative to control; format: functional, cell-based
[32] = tested on: C6661; test: Down regulation of CD44 protein expression level in human C6661 cells at 1 umol/l incubated for 48 hrs by Western-blot analysis relative to control; format: functional, cell-based

O=C1CCCCC(=O)C1=CSc1ccccc1[N+](=O)[O-]
Activity [1]: Active | Activity [2]: Active

O=C1CCCCC(=O)C1=CSc1ccccc1Br
Activity [1]: Active | Activity [2]: Active

O=C1CCCCC(=O)C1=CSc1ccccc1C(F)(F)F
Activity [3]: 10.54% | Activity [4]: inactive | Activity [5]: Active | Activity [6]: inactive | Activity [7]: Active | Activity [8]: 2.76 - 69.43% | Activity [9]: 23.45% | Activity [10]: 46.24% | Activity [11]: 61.78% | Activity [12]: Dose-dependent effect | Activity [13]: 99% | Activity [14]: 89% | Activity [15]: 63% | Activity [16]: 22% | Activity [17]: 11% | Activity [18]: Dose-dependent effect | Activity [19]: Dose-dependent effect | Activity [20]: Active | Activity [21]: Active | Activity [22]: Active | Activity [23]: Active | Activity [24]: Active | Activity [25]: Non-Toxic | Activity [26]: inactive | Activity [27]: inactive | Activity [28]: inactive | Activity [29]: 26% | Activity [30]: 24% | Activity [1]: Active | Activity [2]: Active | Activity [31]: inactive | Activity [32]: inactive

Cc1ncccc1SC=C1C(=O)CCCCC1=O
Activity [1]: Active | Activity [2]: Active

O=C1CCCCC(=O)C1=CSc1ccccc1Cl
Activity [1]: Active | Activity [2]: Active

O=C1CCCCC(=O)C1=CSc1ccccc1F
Activity [1]: Active | Activity [2]: Active

N#Cc1ccccc1SC=C1C(=O)CCCCC1=O
Activity [1]: Active | Activity [2]: Active

Source: ChEMBL document CHEMBL4340515, “Dione-thiophene conjugate inhibits proliferation and metastasis of nasopharyngeal carcinoma cells through calcium binding protein-P down-regulation” (Eur J Med Chem, 2019)
